Measurements: patent US7105529B2, “Substituted oxindole derivatives as protein tyrosine and as protein serine/threonine kinase inhibitors and compositions and methods of treating chemotherapy and radiation therapy side effects” (SmithKline Beecham Corporation, priority 1997, dated 2006)

Key:
CDK1 = CDK1 (Homo sapiens, UniProt P06493); test: CDK1 substrate phosphorylation assay; type: biochemical
Method: Cyclin dependent protein kinase assays utilized the peptides Biotin-aminohexyl-[…] and Biotin-aminohexyl-[…]-NH2 as phosphoryl group acceptors. CDK1 and CDK2 were both expressed utilizing a baculovirus expression system and were partially purified to comprise 20–80% of total protein, with no detectable competing reactions present. Typically, assays were performed by incubating either enzyme (0.2–10 nM), with and without inhibitor, one of the two peptide substrates (1–10 nM), [γ-^32P]ATP (1–20 nM), and 10–20 mM Mg^2+ for periods of time generally within the range 10–120 min. Reactions were terminated with 0.2–2 volumes of either 20% acetic acid or 50–100 mM EDTA buffered to pH 7 (substrate consumption <20%). The buffer employed in enzyme assays was either 30 mM HEPES 7.4 containing 0.15 M NaCl and 5% DMSO, the buffer 50 mM MOPS 7.0 containing 0.15 M NaCl and 5% DMSO, or the buffer 100 mM HEPES pH 7.5 containing 0.1 mg/mL BSA and 5% DMSO. Inhibitors were diluted in 100% DMSO prior to addition into the assay. […]

[1] = tested on: HDF normal diploid fibroblast cells; test: FACS assay (cell death), HDF; type: cell-based; settings: 50% cell death, 72 h
Method: These assays allow determination of both cell death and changes in cell cycle profile in cells following treatment of the compound. The assay is performend as follows: • 1. Cells are incubated in DMEM to which 10% FCS has been added in a humidified incubator at 37° C. and 5% by volume of CO2 in air. The cells are innoculated in 6-well plates at a density of 0.5–5×10^5 cells per well. • 2. The test compound is added in serial dilutions 24–36 h after plating in 0.5% DMSO. The plates are then incubated a further 72 h in the presence of the compound. During this time, cells in control cultures undergo at least three cell divisions. • 3. After incubation, the media is collected and cells are harvested by trypsinization. The cells and media are pooled and pelleted by centrifugation. • 4. The cell pellet is fixed in a final volume of 3 mL of 50% ice cold MeOH and incubated for a minimum of 30 min at −20° C. • 5. The cells are pelleted by centrifugation and resuspended in 0.5 mL PBS containing 1%FCS, […] Propidium Iodide (PI) and 5 mg/mL RNase A and incubated 30 min at 37° C. in the dark. • 6. The samples are analysed by flow cytometry using the relative incorporation of PI as a measure of DNA content of each cell. The % Dead cells is recorded as % of events with less than 2N DNA. […] HDF are normal diploid fibroblast cells. RKO are colon adenocarcinoma cells and MES/SA are ovarian carcinoma cells.

[2] = tested on: MDA-MB468 (human breast carcinoma cell line); test: MTT assay, MDA MB468; type: cell-based
Method: Compounds are tested for their ability to inhibit cell proliferation and cell viability. The metabolic conversion of 3-(4,5-dimethylthiazol-2-yl)-2,5-diphenyltetrazolium bromide (MTT, Sigma #M2128) to a reduced form is a commonly used measure of cellular viability. Following is the procedure: Cells are maintained in 75 cm^2 tissue culture flasks until ready for use. The cells are grown and plated for the assay in Dulbecco's modified Eagle's media (DMEM) containing 10% fetal bovine serum. For example, the following cell lines can be used: a) human foreskin fibroblasts (HFF); b) HT29 (human colon carcinoma cell line); c) MDA-MB468 (human breast carcinoma cell line); d) RKO (human colon adenocarcinoma cell line); e) SW620 (human colon carcinoma cell line); f A549 (human lung carcinoma cell line); and g) MIA PACA (human pancreatic carcinoma cell line). Cells are maintained at 37° C. in 10% CO2, 90% humidified air. Cells are plated in 96-well tissue culture plates at the densities listed below. 100 μL of cell suspension is added to each well of the 96-well plate except the top row of the plate which contains no cells and serves as a reference for the spectrophotometer. [table] […] Quantitation of metabolic reduction of MTT in each plate is performed by reading optical density at 570 nm wavelength on a Molecular Devices UVmax microplate reader.

Chain of CDK1 (P06493 whole entry): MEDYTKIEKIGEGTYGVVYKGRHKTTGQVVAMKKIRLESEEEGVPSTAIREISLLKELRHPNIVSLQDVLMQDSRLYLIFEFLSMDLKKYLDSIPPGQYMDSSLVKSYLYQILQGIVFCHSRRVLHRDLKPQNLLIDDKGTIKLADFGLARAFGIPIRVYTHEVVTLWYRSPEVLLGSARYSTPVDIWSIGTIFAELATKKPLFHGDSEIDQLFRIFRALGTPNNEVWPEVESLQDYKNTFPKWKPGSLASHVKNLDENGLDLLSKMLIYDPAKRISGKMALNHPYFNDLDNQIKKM
Chain of CDK1 (P14635 whole entry partner): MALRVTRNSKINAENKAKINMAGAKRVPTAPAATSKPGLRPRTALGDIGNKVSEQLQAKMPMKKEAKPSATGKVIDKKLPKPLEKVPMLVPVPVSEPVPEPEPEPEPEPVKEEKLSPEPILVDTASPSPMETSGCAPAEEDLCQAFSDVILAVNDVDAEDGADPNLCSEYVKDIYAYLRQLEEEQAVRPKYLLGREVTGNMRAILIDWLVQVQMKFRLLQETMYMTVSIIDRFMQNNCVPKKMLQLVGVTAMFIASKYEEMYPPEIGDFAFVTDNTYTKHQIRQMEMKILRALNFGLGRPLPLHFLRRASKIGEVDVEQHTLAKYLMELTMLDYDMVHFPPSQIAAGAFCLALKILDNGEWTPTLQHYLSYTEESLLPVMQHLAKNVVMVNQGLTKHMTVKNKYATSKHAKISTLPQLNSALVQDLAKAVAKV

Compound	IC50 (CDK1) [nM]	IC50 [1] [µM]	IC50 ([2]; 72 h) [µM]	IC50 ([2]; Homo sapiens, MDA-MB-468, 72 h) [µM]
NS(=O)(=O)c1ccc(NN=C2C(=O)Nc3ccc(-c4cnco4)cc32)cc1 [Example 36]	1 to 10	> 5		
O=C1Nc2ccc3ncsc3c2C1=CNc1ccc(S(=O)(=O)NCc2ccncc2)cc1 [Example 104, 4-[(7-Oxo-6,7-dihydro-1-thia-3,6-diaza-as-indacen-8-ylidenemethyl)amino]-N-pyridinyl-4-yl-methyl benzenesulfonamide]	11 to 50		1.1 to 5	
COC(=O)c1ccc2c(c1)/C(=C/Nc1ccc(S(N)(=O)=O)cc1)C(=O)N2 [Example 27]		> 5		1.1 to 5
